Structures are written as SMILES. Structures can show the parent of a compound that is named as a salt. Some results are limits rather than exact numbers.

From patent publication US8513277B2, “Pyrrolo[3,2-C] pyridine derivatives and processes for the preparation thereof” (Yuhan Corporation, priority 2004, dated 2013) come the findings set out here.

Experiment [1] has as its target T1, H+/K+-ATPase (hog gastric vesicle) (Sus scrofa, UniProt P19156).
T1 construct: used as an enzyme source of the in vitro enzyme reaction assay of proton pump; from tissue; host or cells: hog gastric fundic mucosa, membrane vesicles (sucrose/Ficoll gradient), lyophilized
Description: Inhibitory effects on proton pump (H+/K+-ATPase) activity. It is filed as biochemical. Particulars: K+ stimulated H+/K+-ATPase activity, hog gastric vesicles, Pi measured at 620 nm. How it is done:
The hog fundic regions containing parietal and peptic cells were scraped with slide-glass. The collected cells were suspended in 10 ml of 0.25M sucrose buffer and homogenized using a tight-fitting Teflon-glass homogenizer. The homogenate was centrifuged for 35 min at 8,000 rpm and the pellet was discarded. The supernatant was further centrifuged for 75 min at 25,000 rpm. The resulting pellets were re-suspended in the sucrose buffer (10 ml), and then the suspension was laid onto discontinuous density gradients consisting of 0.25M sucrose buffer and isolation medium containing 9% Ficoll (w/w). After being centrifuged for 3 hours and 15 minutes at 100,000×g, the material at the interface of sucrose buffer and Ficoll solution was collected and then centrifuged for 40 minutes at 100,000×g. The resulting pellets were re-suspended in 1 ml of 5 mM […] buffer (pH 6.1). This material was lyophilized and stored at −70° C. and used as an enzyme source of the in vitro enzyme reaction assay of proton pump. The inhibitory effects of the compounds of the present invention against proton pump activity were evaluated in 96-well plate. In this assay, the K^+ specific H^+/K^+-ATPase activity was calculated based on the difference between the activity of H^+/K^+-ATPase activity with K^+ and without K^+ ion. In 96-well plate, 1% dimethylsulfoxide (DMSO) in buffer was added to negative and positive control groups and the diluted compounds of the present invention in buffer were added to test group. All assays were performed in 100 μl reaction volume at room temperature, and the hog gastric vesicle was kept in ice before use. […] Then lyophilized vesicle in 5 mM Pipes/Tris buffer (pH 6.1) was pre-incubated in the presence of various concentrations of test compounds. After a 5 minute incubation, negative and positive buffers were respectively added to the previous reaction mixture. As the substrate, ATP was added to the reaction buffer, and incubated for 30 minutes at 37° C. Enzymatic activity was stopped by the addition of colorimetric reagent (2× malachite green, 1× ammonium molybdate, 1× polyvinyl alcohol, 2× H2O) and the amount of mono phosphate (Pi) in the reaction was measured at 620 nm using the micro plate reader (Genios Pro, TECAN). The difference between the Pi production with K^+ and without K^+ is taken as K^+ stimulated H^+/K^+-ATPase activity. The IC50s of test compounds were calculated from each % inhibition value of compounds using the method of Litchfield-Wilcoxon (J. Pharmacol. Exp. Ther. (1949) 96, 99).

Experiment [2] relates to basal gastric acid secretion in pylorus-ligated rats. Nature of the experiment: Inhibitory effects on basal gastric acid secretion in pylorus-ligated rats (Shay's rat model). It is filed as in vivo, rat (Sprague Dawley). Particulars: oral, one hour before pylorus ligation, total acid output 5 hours after ligation, male SD rats. The procedure: Inhibitory effects of the compounds of the present invention on basal gastric acid secretion were performed according to Shay's rat model (Shay, H., et al., 1945, gastroenterology, 5, 43-61). Male Sprague Dawley (SD) rats (200±10 g body weight) were divided into […] (n=5) and fasted for 24 hours with free access to water. Control group was orally administered with 0.5% methylcellulose alone and the other groups were orally administered with test compounds suspended in 0.5% methylcellulose solution at doses of 1, 3 and 10 mg/kg/5 ml one hour before pylorus ligation.
Under ether anesthesia, the abdomens of the rats were incised and then the pylorus was ligated. 5 hours after ligation, the animals were sacrificed, and the gastric contents were collected. The collected contents were centrifuged at 1,000×g for 10 minutes to obtain the gastric juice. Total acid output was measured by 0.01 N NaOH volume (ueq/ml) for automatic titration of the gastric juice to pH 7.0 and the ED50s of test compounds were calculated using the Litchfield-Wilcoxon method. % inhibitory activity was calculated from the following equation and the results are shown in Table 2.
% inhibitory activity of test compound=(total acid output of control group−total acid output of the group treated with test compounds)/total acid output of control group×100

The target of another experiment is T2, hog gastric H+/K+-ATPase (Sus scrofa, UniProt P19156).
T2 construct: Gastric vesicles were prepared from hog fundic mucosa; from tissue; host or cells: hog fundic mucosa, gastric vesicles (microsomes), lyophilized
T2 sequence (P19156 2-1034 limits assumed): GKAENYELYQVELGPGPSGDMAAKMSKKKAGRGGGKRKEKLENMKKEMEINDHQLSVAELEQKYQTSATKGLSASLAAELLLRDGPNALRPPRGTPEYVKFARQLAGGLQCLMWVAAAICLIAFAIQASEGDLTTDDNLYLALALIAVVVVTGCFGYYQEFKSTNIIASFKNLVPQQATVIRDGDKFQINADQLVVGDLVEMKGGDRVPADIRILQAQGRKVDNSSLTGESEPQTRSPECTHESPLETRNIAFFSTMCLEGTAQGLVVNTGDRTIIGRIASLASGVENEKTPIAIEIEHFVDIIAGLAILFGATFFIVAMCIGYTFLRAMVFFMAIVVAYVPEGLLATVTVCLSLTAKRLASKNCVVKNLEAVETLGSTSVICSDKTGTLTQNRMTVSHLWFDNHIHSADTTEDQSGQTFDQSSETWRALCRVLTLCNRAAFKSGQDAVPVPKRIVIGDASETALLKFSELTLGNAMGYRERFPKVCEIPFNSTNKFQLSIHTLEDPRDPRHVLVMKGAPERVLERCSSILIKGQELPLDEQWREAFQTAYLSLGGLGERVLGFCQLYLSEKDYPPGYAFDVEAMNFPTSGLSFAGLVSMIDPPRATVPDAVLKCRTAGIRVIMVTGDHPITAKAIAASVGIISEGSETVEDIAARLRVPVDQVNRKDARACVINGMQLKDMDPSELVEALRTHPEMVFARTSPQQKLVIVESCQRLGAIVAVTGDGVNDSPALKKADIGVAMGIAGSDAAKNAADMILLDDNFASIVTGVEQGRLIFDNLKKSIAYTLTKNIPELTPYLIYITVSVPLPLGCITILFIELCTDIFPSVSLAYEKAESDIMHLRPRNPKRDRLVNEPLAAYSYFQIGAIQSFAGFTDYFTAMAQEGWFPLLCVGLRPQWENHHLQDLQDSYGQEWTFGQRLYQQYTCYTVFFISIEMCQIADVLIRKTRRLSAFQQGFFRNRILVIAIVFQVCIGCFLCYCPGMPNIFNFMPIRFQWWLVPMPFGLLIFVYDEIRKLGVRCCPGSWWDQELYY
T2 sequence (P18434 whole entry partner): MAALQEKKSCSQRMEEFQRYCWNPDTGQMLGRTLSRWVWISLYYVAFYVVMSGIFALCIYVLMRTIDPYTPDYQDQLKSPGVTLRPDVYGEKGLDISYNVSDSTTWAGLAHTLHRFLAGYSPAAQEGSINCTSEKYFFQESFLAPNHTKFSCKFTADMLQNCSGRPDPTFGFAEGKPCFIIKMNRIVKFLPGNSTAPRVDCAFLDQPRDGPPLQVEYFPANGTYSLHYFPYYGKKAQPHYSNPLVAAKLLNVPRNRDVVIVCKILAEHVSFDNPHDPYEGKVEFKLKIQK
Nature of the experiment: Reversible inhibition of hog gastric H+/K+-ATPase (washout method). It is filed as biochemical. The procedure:
Gastric vesicles were prepared from hog fundic mucosa using the method of Saccomani et al. (Saccomani G, Stewart H B, Shqw D, Lewin M and Sachs G, Characterization of gastric mucosal membranes. IX. Fraction and purification of K-ATPase-containing vesicles by zonal centrifugation and free-flow electrophoresis technique. Biochem. Biophy. Acta. (BBA)-Biomembranes 465, 311-330, 1977). This material was lyophilized and stored at −70° C. The protein content of gastric vesicles was determined by the Bradford method using bovine serum albumin as a standard (Bradford MM, A rapid and sensitive method for the quantitation of microgram quantities of protein utilizing the principle of protein-dye binding. Anal Biochem. 72, 248-254, 1976).
Activity of H^+/K^+-ATPase in hog microsome (lyophilized vesicle) was measured by the inorganic phosphate released from ATP using an one-step colorimetric detection method at the concentration at which the test compounds have 50% inhibition of the proton pump (Chan K M, Delfert D, and Junger K D, A direct colorimetric assay for Ca^2+-stimulated ATPase activity. Anal Biochem, 157, 375-380, 1986). […]

T1 sequence (P19156 2-1034 limits assumed): as the sequence (P19156 2-1034 limits assumed) above
T1 sequence (P18434 whole entry partner): as the sequence (P18434 whole entry partner) above

`Cc1[nH]c2ccnc(N3CCc4ccccc4C3)c2c1Cc1ccccc1` [Example 70, 3-benzyl-2-methyl-4-(1,2,3,4-tetrahydroisoquinolin-2-yl)-1H-pyrrolo[3,2-c]pyridine sodium] came in with an IC50 in experiment [1] of 220 nM. As to `Cc1c(Cc2ccccc2)c2c(N3CCc4ccccc4C3)nccc2n1Cc1ccccc1` [Example 66, 1,3-dibenzyl-2-methyl-4-(1,2,3,4-tetrahydroisoquinolin-2-yl)-1H-pyrrolo[3,2-c]pyridine hydrochloride], in experiment [1], the IC50 is less than 4000 nM.

In turn, `Cc1c(Cc2ccccc2)c2c(N3CCc4ccccc4C3)nccc2n1C.Cl` [Example 56, 3-benzyl-1,2-dimethyl-4-(1,2,3,4-tetrahydroisoquinolin-2-yl)-1H-pyrrolo[3,2-c]pyridine hydrochloride] displayed an IC50 in experiment [1] of 230 nM. For the same molecule, the ED50 in experiment [2] came to 2.9 mg/kg. In turn, `COCCn1c(C)c(C)c2c(N3CCc4ccccc4C3)nccc21` [Example 3, 2,3-dimethyl-1-(2-methoxyethyl)-4-(1,2,3,4-tetrahydroisoquinolin-2-yl)-1H-pyrrolo[3,2-c]pyridine hydrochloride] displayed an IC50 in experiment [1] of 2050 nM.

With `Cc1[nH]c2ccnc(NCc3ccc(F)cc3)c2c1Cc1ccccc1` [Example 71, 3-benzyl-2-methyl-4-(4-fluorobenzylamino)-1H-pyrrolo[3,2-c]pyridine hydrochloride], in experiment [1], it took 530 nM to reach half-maximal inhibition (IC50). Regarding `CCn1c(C)c(C)c2c(N3CCc4ccccc4C3)nccc21` [Example 7, 1-ethyl-2,3-dimethyl-4-(1,2,3,4-tetrahydroisoquinolin-2-yl)-1H-pyrrolo[3,2-c]pyridine hydrochloride], the IC50 in experiment [1] worked out at 1030 nM. Against the preceding molecule, the IC50 is about 1.9-fold higher. Molecule `Cc1[nH]c2ccnc(N3CCc4ccccc4C3)c2c1Cc1ccccc1.Cl` [Example 55, 3-benzyl-2-methyl-4-(1,2,3,4-tetrahydroisoquinolin-2-yl)-1H-pyrrolo[3,2-c]pyridine hydrochloride] yielded an IC50 in experiment [1] of 90 nM. In experiment [2], this molecule had an ED50 of 1.6 mg/kg. On hog gastric H+/K+-ATPase (after washout, compared with non-treated group), the “inhibition of H+/K+-ATPase activity after washout” value is on record as “did not inhibit”. For the same molecule, the “inhibition of H+/K+-ATPase activity before washout” value at hog gastric H+/K+-ATPase (before washout, compound at the concentration giving 50% inhibition) worked out at 50%. On to `Cc1c(C)n(C)c2ccnc(N3CCc4ccccc4C3)c12` [Example 6, 1,2,3-trimethyl-4-(1,2,3,4-tetrahydroisoquinolin-2-yl)-1H-pyrrolo[3,2-c]pyridine hydrochloride], for which, in experiment [1], the IC50 came out at 430 nM. Still for that read-out and setting: for `Cc1c(Cc2ccccc2)c2c(N3CCc4ccccc4C3)nccc2n1CC1OCCO1` [Example 65, 3-benzyl-1-([1,3]dioxolan-2-ylmethyl)-2-methyl-4-(1,2,3,4-tetrahydroisoquinolin-2-yl)-1H-pyrrolo[3,2-c]pyridine hydrochloride] the value was 2120 nM; for `Cc1c(Cc2ccccc2)c2c(N3CCc4ccccc4C3)nccc2n1C1CC1` [Example 61, 3-benzyl-1-cyclopropyl-2-methyl-4-(1,2,3,4-tetrahydroisoquinolin-2-yl)-1H-pyrrolo[3,2-c]pyridine hydrochloride], 280 nM; for `Cc1c(C)n(CCO)c2ccnc(N3CCc4ccccc4C3)c12` [Example 20, 2,3-dimethyl-1-(2-hydroxyethyl)-4-(1,2,3,4-tetrahydroisoquinolin-2-yl)-1H-pyrrolo[3,2-c]pyridine hydrochloride], less than 4000 nM. Take `COCCn1c(C)c(Cc2ccccc2)c2c(N3CCc4ccccc4C3)nccc21` [Example 63, 3-benzyl-1-(2-methoxyethyl)-2-methyl-4-(1,2,3,4-tetrahydroisoquinolin-2-yl)-1H-pyrrolo[3,2-c]pyridine hydrochloride]: the IC50 in experiment [1] is less than 4000 nM.

As to `Cc1[nH]c2ccnc(N3CCc4ccccc4C3)c2c1C` [Example 1, 2,3-dimethyl-4-(1,2,3,4-tetrahydroisoquinolin-2-yl)-1H-pyrrolo[3,2-c]pyridine], it took 470 nM to reach half-maximal inhibition in experiment [1] (IC50).

By IC50 is commonly meant the midpoint of a concentration-inhibition curve. Read a low IC50 as inhibition by little substance. As a reminder, the ED50 is the dose at which the effect has come halfway, by size or by number of responders.
